Assay in all cases: biochemical
One assay addresses T1, SARS-CoV-2 3CL^pro (Severe acute respiratory syndrome coronavirus 2, UniProt P0DTD1).
T1 construct: […]; made in house; host or cells: Escherichia coli

The target of a further assay is T2, HCoV-229E 3CL^pro (Human coronavirus 229E, UniProt P0C6X1).
T2 construct: […]; made in house; host or cells: E. coli BL21 (DE3)

The next assay concerns the target MERS-CoV 3CL^pro (Middle East respiratory syndrome-related coronavirus, UniProt K9N7C7).
Another assay has as its target SARS-CoV 3CL^pro (Severe acute respiratory syndrome coronavirus, UniProt P0C6X7).

These results are taken from patent US20260125421A1, “ANTIVIRAL COMPOUNDS” (Hoffmann-La Roche Inc., priority 2022, published 2026).

T2 sequence (P0C6X1 2966-3267): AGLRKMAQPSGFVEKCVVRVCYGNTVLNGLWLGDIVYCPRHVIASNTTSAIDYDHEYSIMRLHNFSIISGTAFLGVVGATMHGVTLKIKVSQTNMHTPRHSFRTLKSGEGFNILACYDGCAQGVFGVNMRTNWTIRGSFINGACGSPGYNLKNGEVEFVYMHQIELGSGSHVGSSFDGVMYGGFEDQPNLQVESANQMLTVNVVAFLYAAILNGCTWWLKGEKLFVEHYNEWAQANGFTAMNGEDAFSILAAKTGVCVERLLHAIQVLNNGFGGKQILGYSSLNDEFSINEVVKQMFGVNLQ
Sequence of MERS-CoV 3CL^pro (K9N7C7 3248-3553): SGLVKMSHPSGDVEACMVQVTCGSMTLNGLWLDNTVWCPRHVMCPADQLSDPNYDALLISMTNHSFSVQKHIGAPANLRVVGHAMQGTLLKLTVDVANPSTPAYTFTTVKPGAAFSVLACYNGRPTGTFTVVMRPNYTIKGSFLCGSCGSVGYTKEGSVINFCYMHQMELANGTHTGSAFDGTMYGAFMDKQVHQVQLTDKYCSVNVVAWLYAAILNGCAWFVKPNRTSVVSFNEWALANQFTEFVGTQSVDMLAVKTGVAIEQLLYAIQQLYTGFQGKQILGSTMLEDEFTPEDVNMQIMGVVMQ

Consider `CC1(C)C[C@@H](CN(NC(=O)[C@@H]2[C@H]3CCC[C@H]3CN2C(=O)[C@@H](NC(=O)[C@@H](F)Cl)C(C)(C)C)C(=O)[C@H](F)Cl)C(=O)N1` [Example 15, (2S)-N-[(1S)-1-[(3S,3aS,6aR)-3-[[[(2R)-2-chloro-2-fluoro-acetyl]-[[(3S)-5,5-dimethyl-2-oxo-pyrrolidin-3-yl]methyl]amino]carbamoyl]-3,3a,4,5,6,6a-hexahydro-1H-cyclopenta[c]pyrrole-2-carbonyl]-2,2-dimethyl-propyl]-2-chloro-2-fluoro-acetamide], for which the IC50 at SARS-CoV-2 3CL^pro was 11 nM; at HCoV-229E 3CL^pro it was 589 nM; against MERS-CoV 3CL^pro it was 488 nM; on SARS-CoV 3CL^pro, 12 nM.
Consider `CC(C)(C)[C@H](NC(=O)[C@@H]1CC1(F)F)C(=O)N1C[C@@H]2CCC[C@@H]2[C@H]1C(=O)NN(C[C@H]1CC2(CC2)NC1=O)C(=O)[C@H](F)Cl` [Example 26, (1S)-N-[(1S)-1-[(3S,3aS,6aR)-3-[[[(2R)-2-chloro-2-fluoro-acetyl]-[[(6R)-5-oxo-4-azaspiro[2.4]heptan-6-yl]methyl]amino]carbamoyl]-3,3a,4,5,6,6a-hexahydro-1H-cyclopenta[c]pyrrole-2-carbonyl]-2,2-dimethyl-propyl]-2,2-difluoro-cyclopropanecarboxamide], for which the IC50 against SARS-CoV-2 3CL^pro stood at 12 nM; on HCoV-229E 3CL^pro, 45 nM; on MERS-CoV 3CL^pro it was 111 nM; on SARS-CoV 3CL^pro, 11 nM.
Taken in the same sequence, the figures for `CC(C)(C)[C@H](NC(=O)[C@@H]1CC1(F)F)C(=O)N1C[C@@H]2CCC[C@@H]2[C@H]1C(=O)NN(C[C@@H]1C(=O)N[C@@H]2C[C@H]12)C(=O)[C@H](F)Cl` [Example 38, (1S)-N-[(1S)-1-[(3S,3aS,6aR)-3-[[[(2R)-2-chloro-2-fluoro-acetyl]-[[(1R,4R,5R)-3-oxo-2-azabicyclo[3.1.0]hexan-4-yl]methyl]amino]carbamoyl]-3,3a,4,5,6,6a-hexahydro-1H-cyclopenta[c]pyrrole-2-carbonyl]-2,2-dimethyl-propyl]-2,2-difluoro-cyclopropanecarboxamide] were 27 nM, 134 nM, 398 nM and 54 nM.
Taken in the same sequence, the figures for `CCC(CC)[C@H](NC(=O)C(F)F)C(=O)N1C[C@@H]2CCC[C@@H]2[C@H]1C(=O)NN(C[C@H]1CC(C)(C)NC1=O)C(=O)[C@@H](F)Cl` [Example 18, N-[(1S)-1-[(3S,3aS,6aR)-3-[[[(2S)-2-chloro-2-fluoro-acetyl]-[[(3R)-5,5-dimethyl-2-oxo-pyrrolidin-3-yl]methyl]amino]carbamoyl]-3,3a,4,5,6,6a-hexahydro-1H-cyclopenta[c]pyrrole-2-carbonyl]-2-ethyl-butyl]-2,2-difluoro-acetamide] were 12 nM, 332 nM, 345 nM and 23 nM.
As for `CC(C)(C)[C@H](NC(=O)[C@@H]1CC1(F)F)C(=O)N1C[C@@H]2CCC[C@@H]2[C@H]1C(=O)NN(C[C@H]1C(=O)N[C@@H]2C[C@@H]21)C(=O)[C@H](F)Cl` [Example 35, (1S)-N-[(1S)-1-[(3S,3aS,6aR)-3-[[[(2R)-2-chloro-2-fluoro-acetyl]-[[(1R,4S,5R)-3-oxo-2-azabicyclo[3.1.0]hexan-4-yl]methyl]amino]carbamoyl]-3,3a,4,5,6,6a-hexahydro-1H-cyclopenta[c]pyrrole-2-carbonyl]-2,2-dimethyl-propyl]-2,2-difluoro-cyclopropanecarboxamide], the IC50 against SARS-CoV-2 3CL^pro is 10 nM; at HCoV-229E 3CL^pro, 41 nM; against MERS-CoV 3CL^pro, 117 nM; at SARS-CoV 3CL^pro, 7 nM.
For `CCC(CC)[C@H](NC(=O)C(F)F)C(=O)N1C[C@@H]2CCC[C@@H]2[C@H]1C(=O)NN(C[C@@H]1CC(C)(C)NC1=O)C(=O)[C@H](F)Cl` [Example 7, N-[(1S)-1-[(3S,3aS,6aR)-3-[[[(2R)-2-chloro-2-fluoro-acetyl]-[[(3S)-5,5-dimethyl-2-oxo-pyrrolidin-3-yl]methyl]amino]carbamoyl]-3,3a,4,5,6,6a-hexahydro-1H-cyclopenta[c]pyrrole-2-carbonyl]-2-ethyl-butyl]-2,2-difluoro-acetamide] the same measures were 7 nM, 130 nM, 162 nM and 9 nM.
Taken in the same sequence, the figures for `CC1(C)C[C@H](CN(NC(=O)[C@@H]2[C@H]3CCC[C@H]3CN2C(=O)[C@@H](NC(=O)[C@@H]2CC2(F)F)C(C)(C)C)C(=O)[C@H](F)Cl)C(=O)N1` [Example 5, (1S)-N-[(1S)-1-[(3S,3aS,6aR)-3-[[[(2R)-2-chloro-2-fluoro-acetyl]-[[(3R)-5,5-dimethyl-2-oxo-pyrrolidin-3-yl]methyl]amino]carbamoyl]-3,3a,4,5,6,6a-hexahydro-1H-cyclopenta[c]pyrrole-2-carbonyl]-2,2-dimethyl-propyl]-2,2-difluoro-cyclopropanecarboxamide] were 81 nM, 4100 nM, 1240 nM and 137 nM.
Taken in the same sequence, the figures for `CC1(C)C[C@@H](CN(NC(=O)[C@@H]2[C@H]3CCC[C@H]3CN2C(=O)[C@@H](NC(=O)[C@@H]2CC2(F)F)C(C)(C)C)C(=O)[C@@H](F)Cl)C(=O)N1` [Example 2a, (1S)—N-[(1S)-1-[(3S,3aS,6aR)-3-[[[(2S)-2-chloro-2-fluoro-acetyl]-[[(3S)-5,5-dimethyl-2-oxo-pyrrolidin-3-yl]methyl]amino]carbamoyl]-3,3a,4,5,6,6a-hexahydro-1H-cyclopenta[c]pyrrole-2-carbonyl]-2,2-dimethyl-propyl]-2,2-difluoro-cyclopropanecarboxamide] were 29 nM, 7850 nM, 2910 nM and 64 nM.
In the case of `CC1(C)C[C@@H](CN(NC(=O)[C@@H]2[C@H]3CCC[C@H]3CN2C(=O)[C@@H](NC(=O)C(F)F)C(C)(C)C)C(=O)[C@@H](F)Cl)C(=O)N1` [Example 6, N-[(1S)-1-[(3S,3aS,6aR)-3-[[[(2S)-2-chloro-2-fluoro-acetyl]-[[(3S)-5,5-dimethyl-2-oxo-pyrrolidin-3-yl]methyl]amino]carbamoyl]-3,3a,4,5,6,6a-hexahydro-1H-cyclopenta[c]pyrrole-2-carbonyl]-2,2-dimethyl-propyl]-2,2-difluoro-acetamide], the IC50 at SARS-CoV-2 3CL^pro was 30 nM; at HCoV-229E 3CL^pro it was above 10000 nM; against MERS-CoV 3CL^pro it was 2950 nM; at SARS-CoV 3CL^pro, 41 nM.
On to `C[C@@H]1C[C@@H](CN(NC(=O)[C@@H]2[C@H]3CCC[C@H]3CN2C(=O)[C@@H](NC(=O)[C@@H]2CC2(F)F)C(C)(C)C)C(=O)[C@@H](F)Cl)C(=O)N1` [Example 30, (1S)-N-[(1S)-1-[(3S,3aS,6aR)-3-[[[(2S)-2-chloro-2-fluoro-acetyl]-[[(3S,5R)-5-methyl-2-oxo-pyrrolidin-3-yl]methyl]amino]carbamoyl]-3,3a,4,5,6,6a-hexahydro-1H-cyclopenta[c]pyrrole-2-carbonyl]-2,2-dimethyl-propyl]-2,2-difluoro-cyclopropanecarboxamide], for which the concentration for half-maximal inhibition (IC50) on SARS-CoV-2 3CL^pro is 8 nM; on HCoV-229E 3CL^pro, 66 nM; against MERS-CoV 3CL^pro, 91 nM; on SARS-CoV 3CL^pro, 11 nM.

Broadly, the IC50 is the concentration that gives 50% inhibition.
